These are literature values, as cited in EP1227797B1, “SOLID DISPERSION PHARMACEUTICAL FORMULATIONS” (ABBOTT LABORATORIES, priority 1999, dated 2001).

The conditions of the series: PEG solid dispersion formulation.

For the molecule `O=C1N(Cc2ccc(CO)cc2)[C@H](Cc2ccccc2)[C@H](O)[C@@H](O)[C@@H](Cc2ccccc2)N1Cc1ccc(CO)cc1` [DMP 323], the bioavailability entry is “unable to improve the bioavailability”.
